Results from US20140142129A1, “METHODS OF TREATING A DISEASE OR DISORDER ASSOCIATED WITH BRUTON'S TYROSINE KINASE” (Celgene Avilomics Research, Inc,, priority 2012, published 2014).

Key:
[1] = test system: B-cell non-Hodgkin lymphoma; test: Single agent (monotherapy) clinical study in B-cell non-Hodgkin lymphoma patients; type: in vivo
[2] = Environmental stability (heat, acid, base); type: physicochemical
[3] = Safety in single dose studies in healthy subjects; type: in vivo, human

SMILES | patients with stable disease continuing on treatment ([1]; B-cell non-Hodgkin lymphoma, monotherapy, as of Sep. 11, 2012) | patients with decreased lymph node size ([1]; evaluable B-NHL patients, monotherapy) | environmental instabilities (heat, acid, base) [2] | safety [3] | maximum tolerated dose (MTD) ([1]; single agent, up to 750 mg PO QD)
C=CC(=O)Nc1cccc(Nc2nc(Nc3ccc(OCCOC)cc3)ncc2F)c1.O=S(=O)(O)c1ccccc1 [Compound 1 besylate, N-(3-(5-fluoro-2-(4-(2-methoxyethoxy)phenylamino)pyrimidin-4-ylamino)phenyl)acrylamide benzenesulfonic acid salt] | 9 out of 17 | Six of eleven | no environmental instabilities | – | –
C=CC(=O)Nc1cccc(Nc2nc(Nc3ccc(OCCOC)cc3)ncc2F)c1 [Compound 1, N-(3-(5-fluoro-2-(4-(2-methoxyethoxy)phenylamino)pyrimidin-4-ylamino)phenyl)acrylamide] | – | – | – | adequate safety | has not yet been reached
